Laboratory results reported in patent publication US10722501B2 (BAYER AKTIENGESELLSCHAFT, priority 2016, dated 2020).

Target: T1, recombinant full-length human prolyl endopeptidase (PREP) (Homo sapiens, UniProt P48147)
T1 construct: To recombinant full-length human prolyl endopeptidase (PREP, R&D-Systems, 4308-SE); purchased R&D-Systems 4308-SE
T1 sequence (P48147 1-710): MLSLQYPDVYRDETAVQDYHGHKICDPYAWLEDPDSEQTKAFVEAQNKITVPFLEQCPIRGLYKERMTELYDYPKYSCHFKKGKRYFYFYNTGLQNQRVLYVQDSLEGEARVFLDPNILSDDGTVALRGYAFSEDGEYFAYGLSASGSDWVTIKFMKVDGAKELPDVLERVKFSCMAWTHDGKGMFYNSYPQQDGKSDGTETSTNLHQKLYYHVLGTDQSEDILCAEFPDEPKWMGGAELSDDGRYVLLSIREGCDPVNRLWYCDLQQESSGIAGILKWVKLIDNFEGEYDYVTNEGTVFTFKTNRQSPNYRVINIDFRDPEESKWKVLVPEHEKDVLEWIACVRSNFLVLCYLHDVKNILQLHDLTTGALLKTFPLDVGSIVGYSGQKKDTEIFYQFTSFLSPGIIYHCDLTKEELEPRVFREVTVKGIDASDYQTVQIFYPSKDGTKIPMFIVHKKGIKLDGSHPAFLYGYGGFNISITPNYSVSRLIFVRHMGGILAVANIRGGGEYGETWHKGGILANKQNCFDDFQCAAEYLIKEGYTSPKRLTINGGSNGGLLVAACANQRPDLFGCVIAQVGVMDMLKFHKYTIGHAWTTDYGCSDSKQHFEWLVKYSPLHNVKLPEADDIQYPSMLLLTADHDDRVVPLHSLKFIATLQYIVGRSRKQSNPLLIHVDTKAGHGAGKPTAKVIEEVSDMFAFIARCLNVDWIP
Assay: Biochemical human prolyl endopeptidase (PREP) assay with fluorescently labelled substrate
Conditions: substrate Z-Gly-Pro-AMC 50 μM, 32° C., 60 min; some as mean values from multiple independent determinations
Method in brief: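 0.4 nM (final, example) recombinant PREP in pH 7.5 Tris buffer with EDTA, GSH, BSA and Brij-35; compounds at 1 nM to 30 μM. Reaction started with 50 μM Z-Gly-Pro-AMC and followed by fluorescence (ex 360/em 465 nm) at 32° C for 60 min. IC50 interpolated from percent activity based on initial slopes.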

| IC50 | SMILES |
| --- | --- |
| 98.5 nM | O=C(C1C(C(F)(F)F)CCc2nn(Cc3ncc(Cl)cc3Cl)c(=O)n21)N1CC(F)C1 (single isomer, unassigned) [Example 307, (5RS,6RS)-2-[(3,5-Dichloropyridin-2-yl)methyl]-5-[(3-fluoroazetidin-1-yl)carbonyl]-6-(trifluoromethyl)-5,6,7,8-tetrahydro[1,2,4]triazolo[4,3-a]pyridin-3(2H)-one] |
| 64 nM | O=C(C1C(C(F)(F)F)CCc2nn(Cc3ncc(Cl)cc3F)c(=O)n21)N1CC(F)C1 (single isomer, unassigned) [Example 309, (5RS,6RS)-2-[(5-Chloro-3-fluoropyridin-2-yl)methyl]-5-[(3-fluoroazetidin-1-yl)carbonyl]-6-(trifluoromethyl)-5,6,7,8-tetrahydro[1,2,4]triazolo[4,3-a]pyridin-3(2H)-one] |
| 30 nM | O=C(C1C(C(F)(F)F)CCc2nn(Cc3ccc(Cl)cn3)c(=O)n21)N1CC(F)C1 (single isomer, unassigned) [Example 311, (5RS,6RS)-2-[(5-Chloropyridin-2-yl)methyl]-5-[(3-fluoroazetidin-1-yl)carbonyl]-6-(trifluoromethyl)-5,6,7,8-tetrahydro[1,2,4]triazolo[4,3-a]pyridin-3(2H)-one] |
| 4 nM | O=C(C1CC(C(F)(F)F)Cc2nn(Cc3ccc(C(F)(F)F)nc3)c(=O)n21)N1CCC(F)(F)C1 (single isomer, unassigned) [Example 313, (5RS,7RS)-5-[(3,3-Difluoropyrrolidin-1-yl)carbonyl]-7-(trifluoromethyl)-2-{[6-(trifluoromethyl)pyridin-3-yl]methyl}-5,6,7,8-tetrahydro[1,2,4]triazolo[4,3-a]pyridin-3(2H)-one] |
| 1.4 nM | O=C(C1CC(C(F)(F)F)Cc2nn(Cc3ccc(Cl)cn3)c(=O)n21)N1CC[C@H](F)C1 (single isomer, unassigned) [Example 315] |
| 0.41 nM | O=C(C1CC(C(F)(F)F)Cc2nn(Cc3cncc(Cl)c3)c(=O)n21)N1CC[C@H](F)C1 (single isomer, unassigned) [Example 317] |
| 518 nM | O=C(C1CC(C(F)(F)F)Cc2nn(Cc3cncc(Cl)c3)c(=O)n21)N1CC[C@H](F)C1 (single isomer, unassigned) [Example 318] |
| 7.5 nM | CC1Cc2nn(Cc3ccc(C(F)(F)F)nc3)c(=O)n2C(C(=O)N2C[C@@H](F)[C@@H](F)C2)C1 (single isomer, unassigned) [Example 337] |
| 1.5 nM | CC1Cc2nn(Cc3ccc(C(F)(F)F)nc3)c(=O)n2C(C(=O)N2C[C@@H](F)[C@@H](F)C2)C1 (single isomer, unassigned) [Example 338] |
| 480 nM | O=C([C@@H]1CCCc2nn(Cc3ccc(Cl)nc3)c(=O)n21)N1CC(F)C(F)C1 (single isomer, unassigned) [Example 551] |
| 6.4 nM | O=C([C@@H]1CCCc2nn(Cc3ccc(Cl)nc3)c(=O)n21)N1CC(F)C(F)C1 (single isomer, unassigned) [Example 552] |
| 575 nM | O=C([C@@H]1CCCc2nn(Cc3ccc(C(F)(F)F)nc3)c(=O)n21)N1CC(F)C(F)C1 (single isomer, unassigned) [Example 553] |
| 10 nM | O=C([C@@H]1CCCc2nn(Cc3ccc(C(F)(F)F)nc3)c(=O)n21)N1CC(F)C(F)C1 (single isomer, unassigned) [Example 554] |
| 0.33 nM | O=C(C1CC(C(F)(F)F)Cc2nn(Cc3ncc(C(F)(F)F)cc3Cl)c(=O)n21)N1CC[C@H](F)C1 (single isomer, unassigned) [Example 563] |
| 1.5 nM | O=C(C1CC(C(F)(F)F)Cc2nn(Cc3ncc(C(F)(F)F)cc3Cl)c(=O)n21)N1CCC(F)(F)C1 (single isomer, unassigned) [Example 565, (5RS,7RS)-2-{[3-Chloro-5-(trifluoromethyl)pyridin-2-yl]methyl}-5-[(3,3-difluoropyrrolidin-1-yl)carbonyl]-7-(trifluoromethyl)-5,6,7,8-tetrahydro[1,2,4]triazolo[4,3-a]pyridin-3(2H)-one] |
| 2.7 nM | O=C(C1CC(C(F)(F)F)Cc2nn(Cc3ccc(Cl)cn3)c(=O)n21)N1CCC(F)(F)C1 (single isomer, unassigned) [Example 567, (5RS,7RS)-2-[(5-Chloropyridin-2-yl)methyl]-5-[(3,3-difluoropyrrolidin-1-yl)carbonyl]-7-(trifluoromethyl)-5,6,7,8-tetrahydro[1,2,4]triazolo[4,3-a]pyridin-3(2H)-one] |
| 0.57 nM | O=C(C1CC(C(F)(F)F)Cc2nn(Cc3ncc(F)cc3F)c(=O)n21)N1CC[C@H](F)C1 (single isomer, unassigned) [Example 570] |
| 1.4 nM | O=C(C1CC(C(F)(F)F)Cc2nn(Cc3ncc(F)cc3Cl)c(=O)n21)N1CC[C@H](F)C1 (single isomer, unassigned) [Example 572] |
| 5.2 nM | O=C(C1CC(C(F)(F)F)Cc2nn(Cc3ncc(F)cc3F)c(=O)n21)N1CCC(F)(F)C1 (single isomer, unassigned) [Example 574, (5RS,7RS)-2-[(3,5-Difluoropyridin-2-yl)methyl]-5-[(3,3-difluoropyrrolidin-1-yl)carbonyl]-7-(trifluoromethyl)-5,6,7,8-tetrahydro[1,2,4]triazolo[4,3-a]pyridin-3(2H)-one] |
| 8.7 nM | O=C(C1CC(C(F)(F)F)Cc2nn(Cc3ncc(F)cc3Cl)c(=O)n21)N1CCC(F)(F)C1 (single isomer, unassigned) [Example 576, (5RS,7RS)-2-[(3-Chloro-5-fluoropyridin-2-yl)methyl]-5-[(3,3-difluoropyrrolidin-1-yl)carbonyl]-7-(trifluoromethyl)-5,6,7,8-tetrahydro[1,2,4]triazolo[4,3-a]pyridin-3(2H)-one] |
| 970 nM | O=C(C1CC(C(F)(F)F)Cc2nn(Cc3ccc(C(F)(F)F)nc3)c(=O)n21)N1CC(F)C(F)C1 (single isomer, unassigned) [Example 583] |
| 50 nM | O=C(C1CC(C(F)(F)F)Cc2nn(Cc3ccc(C(F)(F)F)nc3)c(=O)n21)N1CC(F)C(F)C1 (single isomer, unassigned) [Example 584] |
| 0.73 nM | Cc1ccc(Cn2nc3n(c2=O)[C@H](C(=O)N2CCCC2)CCC3)cc1 [Example 26, (5S)-2-(4-Methylbenzyl)-5-(pyrrolidin-1-ylcarbonyl)-5,6,7,8-tetrahydro[1,2,4]triazolo[4,3-a]pyridin-3(2H)-one] |
| 12 nM | O=C([C@@H]1CCc2nn(Cc3ccc(C(F)(F)F)nc3)c(=O)n21)N1CCCC1 [Example 50, (5S)-5-(Pyrrolidin-1-ylcarbonyl)-2-{[6-(trifluoromethyl)pyridin-3-yl]methyl}-2,5,6,7-tetrahydro-3H-pyrrolo[2,1-c][1,2,4]triazol-3-one] |
| 0.89 nM | O=C([C@@H]1CCc2nn(Cc3ccc(F)c(Cl)c3)c(=O)n21)N1CCCC1 [Example 51, (5S)-2-(3-Chloro-4-fluorobenzyl)-5-(pyrrolidin-1-ylcarbonyl)-2,5,6,7-tetrahydro-3H-pyrrolo[2,1-c][1,2,4]triazol-3-one] |
| 4.6 nM | O=C([C@@H]1CCc2nn(Cc3ccc(Cl)nc3)c(=O)n21)N1CCCC1 [Example 52, (5S)-2-[(6-Chloropyridin-3-yl)methyl]-5-(pyrrolidin-1-ylcarbonyl)-2,5,6,7-tetrahydro-3H-pyrrolo[2,1-c][1,2,4]triazol-3-one] |
